The values that follow are results of earlier work, collected in US10639343B2, “Preparation method of Gynostemma pentaphyllum leaves extract and Gynostemma pentaphyllum extract prepared by the method thereof” (BTC CORPORATION, priority 2018, dated 2020).

SMILES strings stand for the structures.

The conditions of the series: intraperitoneal injection, without training.

Turning to `NC(=O)c1ncn([C@@H]2O[C@H](COP(=O)(O)O)[C@@H](O)[C@H]2O)c1N` [AICAR, 5-aminoimidazole-4-carboxamide ribonucleotide], the “increase of the distance of exercise performance” value is reported as 44%.
